From patent US8476265B2, “Compounds-801” (AstraZeneca AB, priority 2010, dated 2013)

Legend:
[1] = target: T1, human muscarinic acetylcholine M3 receptor (Homo sapiens, UniProt P20309); experiment: Muscarinic 3 receptor binding assay ([3H]NMS competition, SPA), pIC50; conditions: [3H]NMS 0.1 nM, CHO-K1 cell membranes expressing human M3 receptor
T1 construct: expressed in transfected cells; host or cells: CHO-K1 (Chinese Hamster Ovary) cell membranes
Procedure, shortened: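 SPA beads precoated with human M3-expressing CHO-K1 membranes were incubated 16 h at room temperature with serially diluted compound and 0.1 nM [3H]NMS (pH 7.4 HEPES buffer, MgCl2, BSA, 1% DMSO). Atropine (1 μM) defined non-specific binding; pIC50 is the 50% reduction in specific binding.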

[2] = target: T2, Adrenergic β2 (Homo sapiens, UniProt P07550); experiment: Adrenergic β2 mediated cAMP production in H292 cells (AlphaScreen), concentration response; format: cell-based; conditions: for EC50: 60 min, 300 μM rolipram, read-out: β2 pEC50 (converted); for β2 Intrinsic Activity: fraction relative to the maximum activity determined for formoterol
T2 construct: Adherent H292 cells are removed from tissue culture flasks by treatment with Accutase™ cell detachment solution; endogenous in cells; host or cells: H292 cells
Procedure, shortened: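 Intracellular cAMP in lysates read by AlphaScreen, calibrated with cAMP standards; curves fitted for pEC50, with intrinsic activity as a fraction of formoterol's maximum. Agonist exposure 60 min at room temperature after 10 min rolipram (300 μM final), 1% DMSO, HEPES-buffered HBSS pH 7.4.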

T1 sequence (P20309 whole entry): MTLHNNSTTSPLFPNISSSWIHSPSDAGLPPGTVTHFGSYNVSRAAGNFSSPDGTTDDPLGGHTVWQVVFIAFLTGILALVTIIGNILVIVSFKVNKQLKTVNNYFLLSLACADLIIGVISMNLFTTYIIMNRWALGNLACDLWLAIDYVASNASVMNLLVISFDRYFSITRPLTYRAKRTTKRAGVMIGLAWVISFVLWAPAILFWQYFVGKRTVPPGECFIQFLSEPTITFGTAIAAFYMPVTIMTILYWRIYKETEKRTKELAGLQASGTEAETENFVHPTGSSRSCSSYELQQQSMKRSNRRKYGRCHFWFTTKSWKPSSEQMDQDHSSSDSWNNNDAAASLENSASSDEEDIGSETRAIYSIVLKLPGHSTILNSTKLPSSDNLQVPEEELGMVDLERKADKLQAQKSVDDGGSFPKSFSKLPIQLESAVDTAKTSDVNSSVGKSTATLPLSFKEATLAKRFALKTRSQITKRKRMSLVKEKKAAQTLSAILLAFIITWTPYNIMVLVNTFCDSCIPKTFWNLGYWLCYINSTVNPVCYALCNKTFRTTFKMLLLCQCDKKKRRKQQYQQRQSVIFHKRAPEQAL
T2 sequence (P07550 whole entry): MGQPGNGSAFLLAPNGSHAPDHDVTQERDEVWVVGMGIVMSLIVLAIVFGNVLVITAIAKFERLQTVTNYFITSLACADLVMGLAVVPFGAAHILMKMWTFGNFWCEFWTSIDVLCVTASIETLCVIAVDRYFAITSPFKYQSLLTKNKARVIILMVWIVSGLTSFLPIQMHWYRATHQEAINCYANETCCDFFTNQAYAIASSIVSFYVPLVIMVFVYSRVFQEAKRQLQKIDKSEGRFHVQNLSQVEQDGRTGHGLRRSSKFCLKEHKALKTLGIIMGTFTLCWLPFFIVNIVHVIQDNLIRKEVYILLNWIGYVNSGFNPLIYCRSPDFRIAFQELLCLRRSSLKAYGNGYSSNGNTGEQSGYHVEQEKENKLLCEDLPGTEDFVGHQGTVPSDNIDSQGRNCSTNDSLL

IC50 [1] [nM] | EC50 [2] [nM] | β2 Intrinsic Activity [2] | SMILES
0.1 | 100 | 0.9 | CC(C)c1nc(C(=O)N2CCOC3(CCN(Cc4cccc(SCCCOCCC(=O)N(CCNCCc5ccc(O)c6c5OCC(=O)N6)C5CCCC5)c4)CC3)C2)cs1 [Example 54, N-Cyclopentyl-N-(2-(2-(5-hydroxy-3-oxo-3,4-dihydro-2H-benzo[b][1,4]oxazin-8-yl)ethylamino)ethyl)-3-(3-(3-((4-(2-isopropylthiazole-4-carbonyl)-1-oxa-4,9-diazaspiro[5.5]undecan-9-yl)methyl)phenylthio)propoxy)propanamide ditrifluoroacetate]
0.0631 | 200 | 1.2 | CC(C)c1nc(C(=O)N2CCOC3(CCN(Cc4csc(CCOCCC(=O)N(CCNCCc5ccc(O)c6c5OCC(=O)N6)C5CCCCC5)c4)CC3)C2)cs1 [Example 56, N-Cyclohexyl-N-(2-(2-(5-hydroxy-3-oxo-3,4-dihydro-2H-benzo[b][1,4]oxazin-8-yl)ethylamino)ethyl)-3-(2-(4-((4-(2-isopropylthiazole-4-carbonyl)-1-oxa-4,9-diazaspiro[5.5]undecan-9-yl)methyl)thiophen-2-yl)ethoxy)propanamide ditrifluoroacetate]
< 0.0501 | 316 | 0.9 | CC(C)c1nc(C(=O)N2CCOC3(CCN(Cc4cccc(CCCOCCC(=O)N(CCNCCc5ccc(O)c6c5OCC(=O)N6)C5CCCCC5)c4)CC3)C2)cs1 [Example 57, N-Cyclohexyl-N-(2-(2-(5-hydroxy-3-oxo-3,4-dihydro-2H-benzo[b][1,4]oxazin-8-yl)ethylamino)ethyl)-3-(3-(3-((4-(2-isopropylthiazole-4-carbonyl)-1-oxa-4,9-diazaspiro[5.5]undecan-9-yl)methyl)phenyl)propoxy)propanamide ditrifluoroacetate]
0.2 | 50.1 | 0.7 | CC(C)c1nc(C(=O)N2CCOC3(CCN(Cc4cccc(OCCCOCCC(=O)N(CCNCCc5ccc(O)c6c5OCC(=O)N6)C5CCCCC5)c4)CC3)C2)cs1 [Example 60, N-Cyclohexyl-N-(2-(2-(5-hydroxy-3-oxo-3,4-dihydro-2H-benzo[b][1,4]oxazin-8-yl)ethylamino)ethyl)-3-(3-(3-((4-(2-isopropylthiazole-4-carbonyl)-1-oxa-4,9-diazaspiro[5.5]undecan-9-yl)methyl)phenoxy)propoxy)propanamide ditrifluoroacetate]
2 | 158 | 1.1 | CC(C)c1nc(C(=O)N2CCOC3(CCN(CCc4cc(CCOCCC(=O)N(CCNCCc5ccc(O)c6c5OCC(=O)N6)C5CCCCC5)cs4)CC3)C2)cs1 [Example 63, N-Cyclohexyl-N-(2-(2-(5-hydroxy-3-oxo-3,4-dihydro-2H-benzo[b][1,4]oxazin-8-yl)ethylamino)ethyl)-3-(2-(5-(2-(4-(2-isopropylthiazole-4-carbonyl)-1-oxa-4,9-diazaspiro[5.5]undecan-9-yl)ethyl)thiophen-3-yl)ethoxy)propanamide ditrifluoroacetate]
2.51 | 20 | 1.0 | Cc1c(CCOCCC(=O)N(CCNCCc2ccc(O)c3c2OCC(=O)N3)C2CCCC2)cccc1CN1CCC2(CC1)CN(C(=O)c1csc(C(C)C)n1)CCO2 [Example 64, N-Cyclopentyl-N-(2-(2-(5-hydroxy-3-oxo-3,4-dihydro-2H-benzo[b][1,4]oxazin-8-yl)ethylamino)ethyl)-3-(3-((4-(2-isopropylthiazole-4-carbonyl)-1-oxa-4,9-diazaspiro[5.5]undecan-9-yl)methyl)-2-methylphenethoxy)propanamide ditrifluoroacetate]
0.501 | 63.1 | 1.0 | CCCCN(CCNCCc1ccc(O)c2c1OCC(=O)N2)C(=O)CCOCCc1cc(C)cc(CN2CCC3(CC2)CN(C(=O)c2csc(C(C)C)n2)CCO3)c1 [Example 65, N-Butyl-N-(2-(2-(5-hydroxy-3-oxo-3,4-dihydro-2H-benzo[b][1,4]oxazin-8-yl)ethylamino)ethyl)-3-(3-((4-(2-isopropylthiazole-4-carbonyl)-1-oxa-4,9-diazaspiro[5.5]undecan-9-yl)methyl)-5-methylphenethoxy)propanamide ditrifluoroacetate]

Continued, compound first:

SMILES | IC50 [1] [nM] | EC50 [2] [nM] | β2 Intrinsic Activity [2]
CCN(CCNCCc1ccc(O)c2[nH]c(=O)sc12)C(=O)CCOCCc1ccc(CCN2CCC3(CC2)CN(C(=O)c2csc(C(C)C)n2)CCO3)s1 [Example 52, N-Ethyl-N-(2-(2-(4-hydroxy-2-oxo-2,3-dihydrobenzo[d]thiazol-7-yl)ethylamino)ethyl)-3-(2-(5-(2-(4-(2-isopropylthiazole-4-carbonyl)-1-oxa-4,9-diazaspiro[5.5]undecan-9-yl)ethyl)thiophen-2-yl)ethoxy)propanamide ditrifluoroacetate] | 1.58 | 12.6 | 0.9
CC(C)c1nc(C(=O)N2CCOC3(CCN(CCOc4cccc(CCOCCC(=O)N(CCNCCc5ccc(O)c6c5OCC(=O)N6)C5CCCCC5)c4)CC3)C2)cs1 [Example 53, N-Cyclohexyl-N-(2-(2-(5-hydroxy-3-oxo-3,4-dihydro-2H-benzo[b][1,4]oxazin-8-yl)ethylamino)ethyl)-3-(3-(2-(4-(2-isopropylthiazole-4-carbonyl)-1-oxa-4,9-diazaspiro[5.5]undecan-9-yl)ethoxy)phenethoxy)propanamide ditrifluoroacetate] | 7.94 | 20 | 1.0
CC(C)c1nc(C(=O)N2CCOC3(CCN(Cc4cccc(SCCOCCC(=O)N(C)CCNCCc5ccc(O)c6[nH]c(=O)sc56)c4)CC3)C2)cs1 [Example 55, N-(2-(2-(4-Hydroxy-2-oxo-2,3-dihydrobenzo[d]thiazol-7-yl)ethylamino)ethyl)-3-(2-(3-((4-(2-isopropylthiazole-4-carbonyl)-1-oxa-4,9-diazaspiro[5.5]undecan-9-yl)methyl)phenylthio)ethoxy)-N-methylpropanamide ditrifluoroacetate] | 0.126 | 100 | 0.6
CC(C)c1nc(C(=O)N2CCOC3(CCN(Cc4cccc(CCCCOCCC(=O)N(CCNCCc5ccc(O)c6c5OCC(=O)N6)C5CCCCC5)c4)CC3)C2)cs1 [Example 58, N-Cyclohexyl-N-(2-(2-(5-hydroxy-3-oxo-3,4-dihydro-2H-benzo[b][1,4]oxazin-8-yl)ethylamino)ethyl)-3-(4-(3-((4-(2-Isopropylthiazole-4-carbonyl)-1-oxa-4,9-diazaspiro[5.5]undecan-9-yl)methyl)phenyl)butoxy)propanamide ditrifluoroacetate] | 0.0631 | 100 | 0.9
CC(C)c1nc(C(=O)N2CCOC3(CCN(Cc4cccc(OCCOCCC(=O)N(CCNCCc5ccc(O)c6c5OCC(=O)N6)C5CCCCC5)c4)CC3)C2)cs1 [Example 59, N-Cyclohexyl-N-(2-(2-(5-hydroxy-3-oxo-3,4-dihydro-2H-benzo[b][1,4]oxazin-8-yl)ethylamino)ethyl)-3-(2-(3-((4-(2-isopropylthiazole-4-carbonyl)-1-oxa-4,9-diazaspiro[5.5]undecan-9-yl)methyl)phenoxy)ethoxy)propanamide ditrifluoroacetate] | 0.251 | 631 | 0.9
CCN(CCNCCc1ccc(O)c2[nH]c(=O)sc12)C(=O)CCOCCc1cccc(OCCCN2CCC3(CC2)CN(C(=O)c2csc(C(C)C)n2)CCO3)c1 [Example 61, N-Ethyl-N-(2-(2-(4-hydroxy-2-oxo-2,3-dihydrobenzo[d]thiazol-7-yl)ethylamino)ethyl)-3-(3-(3-(4-(2-isopropylthiazole-4-carbonyl)-1-oxa-4,9-diazaspiro[5.5]undecan-9-yl)propoxy)phenethoxy)propanamide ditrifluoroacetate] | 2 | 20 | 0.7
CCN(CCNCCc1ccc(O)c2[nH]c(=O)sc12)C(=O)CCOCCc1ccc(OCCCN2CCC3(CC2)CN(C(=O)c2csc(C(C)C)n2)CCO3)cc1 [Example 62, N-Ethyl-N-(2-(2-(4-hydroxy-2-oxo-2,3-dihydrobenzo[d]thiazol-7-yl)ethylamino)ethyl)-3-(4-(3-(4-(2-isopropylthiazole-4-carbonyl)-1-oxa-4,9-diazaspiro[5.5]undecan-9-yl)propoxy)phenethoxy)propanamide ditrifluoroacetate] | 0.794 | 100 | 0.7
CCN(CCNCCc1ccc(O)c2[nH]c(=O)sc12)C(=O)CCOCCCc1cccc(CN2CCC3(CC2)CN(C(=O)c2csc(C(C)C)n2)CCO3)c1F [Example 66, N-Ethyl-3-(3-(2-fluoro-3-((4-(2-isopropylthiazole-4-carbonyl)-1-oxa-4,9-diazaspiro[5.5]undecan-9-yl)methyl)phenyl)propoxy)-N-(2-(2-(4-hydroxy-2-oxo-2,3-dihydrobenzo[d]thiazol-7-yl)ethylamino)ethyl)propanamide ditrifluoroacetate] | 0.501 | 251 | 0.5
